Each structure is given as a SMILES string.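 Tested at 5 concentrations; 48 h exposure; 96-well plates; endpoints linearly interpolated, else capped at highest concentration. GI50 marks 50% less growth.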 The source made the active and inactive calls. No stated cut-off is given here; in the data, active = GI50 up to about 1.1 µM and inactive = higher. Some results are limits rather than exact numbers.

Test systems include A549; HCT-15; HOP-92; HT-29; IGROV-1; M14; MDA-MB-231; NCI-H226; NCI-H522; PC-3; SF-268; SF-295; SF-539; SK-MEL-28; SW-620; UACC-62; CCRF-CEM; K562; SN12C; HL-60.
What all share (assay): NCI-60 cell line screen, 48 h

Take `Cc1ccc(S(=O)(=O)NC(CN)C(=O)O)cc1` (centres undefined): the GI50 in the experiment on A549 was > 100 µM (inactive); in the experiment on HCT-15 it was > 100 µM; in the experiment with HOP-92, > 100 µM (inactive); with HT-29, > 100 µM (inactive); in the experiment with IGROV-1 it was > 100 µM (inactive); with M14 it was > 100 µM (inactive). Moreover, the GI50 in the experiment on MDA-MB-231, in the experiment with NCI-H226, with NCI-H522, with PC-3, with SF-268 and in the experiment on SF-295 was > 100 µM (inactive) in each case. The GI50 with SF-539, in the experiment on SK-MEL-28, in the experiment on SW-620 and with UACC-62 was > 100 µM (inactive) throughout.

Regarding `CC(C)CC1N=C(OCc2ccccc2)OC1=O` (centres undefined), the GI50 in the experiment on A549 is > 100 µM (inactive); in the experiment on CCRF-CEM, > 100 µM (inactive); in the experiment on HCT-15, > 100 µM; in the experiment on HOP-92, > 100 µM (inactive); in the experiment on HT-29 it was > 100 µM (inactive); with IGROV-1, > 100 µM (inactive). The GI50 in the experiment with K562, with M14, in the experiment on MDA-MB-231, with NCI-H226, in the experiment with NCI-H522 and in the experiment on PC-3 was > 100 µM (inactive) in each case. Besides, the GI50 was 2.79 µM (inactive) in the experiment on SF-268; > 100 µM (inactive) in the experiment with SF-295; > 100 µM (inactive) with SF-539; > 100 µM (inactive) in the experiment with SK-MEL-28; > 100 µM (inactive) with SN12C; > 100 µM (inactive) in the experiment with SW-620.

Turning to `CCOC(=O)C(C)c1nc2cc(F)c(F)cc2[nH]c1=O` (centres undefined), the GI50 with A549 is > 100 µM (inactive); in the experiment on CCRF-CEM, > 100 µM (inactive); with HCT-15 it was > 100 µM; in the experiment with HL-60, > 100 µM (inactive); with HOP-92 it was > 100 µM (inactive); in the experiment with HT-29, > 100 µM (inactive). Besides, the GI50 in the experiment on K562, with M14, in the experiment with MDA-MB-231, with NCI-H226, in the experiment on PC-3 and in the experiment on SF-268 was > 100 µM (inactive) throughout. The GI50 in the experiment with SF-295, with SF-539, in the experiment on SK-MEL-28, in the experiment with SN12C, in the experiment on SW-620 and with UACC-62 was > 100 µM (inactive) in each case.

Turning to `O=C1C=C/C(=N/c2cccc3c(/N=C4/C=CC(=O)O4)cccc23)O1`, the GI50 in the experiment with A549 is > 100 µM (inactive); with HCT-15, 37.3 µM; with HOP-92, 42.7 µM (inactive); in the experiment with HT-29 it was 41.8 µM (inactive); in the experiment with IGROV-1, 58.5 µM (inactive); with K562 it was 21.2 µM (inactive). The GI50 in the experiment on M14 is 29.2 µM (inactive); with MDA-MB-231, 69.5 µM (inactive); in the experiment on NCI-H226, > 100 µM (inactive); in the experiment with NCI-H522, 18.7 µM (inactive); in the experiment with PC-3, 48 µM (inactive); with SF-268, 52.6 µM (inactive). Besides, the GI50 with SF-295 is > 100 µM (inactive); in the experiment with SF-539, 19.1 µM (inactive); in the experiment on SK-MEL-28, 28.3 µM (inactive); in the experiment on SN12C, 29.9 µM (inactive); in the experiment on SW-620, 16.4 µM (inactive); in the experiment on UACC-62, 34.4 µM (inactive).

`CN(C)/C=N/S(=O)(=O)c1nn2c(C=O)c(-c3ccccc3)nc2s1`: the GI50 in the experiment with A549 was 26.6 µM (inactive); in the experiment with CCRF-CEM, 2.96 µM (inactive); in the experiment with HCT-15 it was 9.46 µM; in the experiment with HOP-92 it was 17.5 µM (inactive); in the experiment with HT-29 it was 1.94 µM (inactive); in the experiment with K562, 3.9 µM (inactive). The GI50 in the experiment on M14 was 2.51 µM (inactive); in the experiment with MDA-MB-231, 6.81 µM (inactive); in the experiment on NCI-H226, 21.4 µM (inactive); with NCI-H522 it was 3.37 µM (inactive); with PC-3, 14.1 µM (inactive); in the experiment with SF-268, 29.5 µM (inactive). Further, the GI50 in the experiment with SF-295 was 52.8 µM (inactive); in the experiment with SF-539 it was 17.7 µM (inactive); in the experiment with SK-MEL-28 it was 9.2 µM (inactive); in the experiment with SN12C it was 13.5 µM (inactive); in the experiment with SW-620, 3.76 µM (inactive); with UACC-62 it was 18.2 µM (inactive).

On to `CCOC(=O)/C(=N\Nc1ccc(-n2c(C)nc3ccc(Br)cc3c2=O)cc1)C(C)=O`, for which the GI50 with A549 was 53.8 µM (inactive); with CCRF-CEM it was 31.1 µM (inactive); in the experiment on HCT-15, 64.4 µM; in the experiment with HL-60 it was 5.32 µM (inactive); with HOP-92 it was 38 µM (inactive); in the experiment on HT-29, > 100 µM (inactive). Further, the GI50 in the experiment with IGROV-1 is > 100 µM (inactive); in the experiment with K562 it was 35.2 µM (inactive); in the experiment with M14, 62.4 µM (inactive); in the experiment on MDA-MB-231, 31.9 µM (inactive); in the experiment on NCI-H226, 77.8 µM (inactive); in the experiment with PC-3, 44.6 µM (inactive). Besides, the GI50 in the experiment on SF-268 was 67.6 µM (inactive); with SF-295, 48 µM (inactive); with SF-539 it was 38.8 µM (inactive); with SK-MEL-28, 88.7 µM (inactive); with SN12C it was > 100 µM (inactive); in the experiment on SW-620, > 100 µM (inactive). In the experiment on UACC-62, the GI50 was 46.9 µM (inactive).

In the case of `c1ccc2c(c1)nc1n2CSCC1`, the GI50 in the experiment on A549 was > 100 µM (inactive); in the experiment on CCRF-CEM, > 100 µM (inactive); in the experiment on HCT-15, > 100 µM; in the experiment with HL-60, > 100 µM (inactive); with HOP-92, > 100 µM (inactive); with HT-29, > 100 µM (inactive). Further, the GI50 in the experiment with IGROV-1, with K562, with M14, in the experiment with MDA-MB-231, in the experiment with NCI-H226 and in the experiment on PC-3 was > 100 µM (inactive) throughout. The GI50 in the experiment with SF-268, in the experiment with SF-295, in the experiment on SF-539, in the experiment with SK-MEL-28, with SN12C and with SW-620 was > 100 µM (inactive) in each case. In the experiment with UACC-62, the GI50 is > 100 µM (inactive).

For `NC(=O)c1cc2ccccc2c(/N=N/c2ccccc2)c1O`, the GI50 in the experiment on A549 is > 100 µM (inactive); in the experiment on CCRF-CEM it was > 100 µM (inactive); with HCT-15, > 100 µM; with HOP-92 it was 12.5 µM (inactive); with HT-29 it was 7.87 µM (inactive); with IGROV-1, > 100 µM (inactive). Moreover, the GI50 in the experiment on K562 is 71.9 µM (inactive); in the experiment on M14, > 100 µM (inactive); in the experiment on MDA-MB-231, 35.6 µM (inactive); in the experiment on NCI-H226 it was > 100 µM (inactive); with NCI-H522 it was 38.7 µM (inactive); in the experiment on PC-3 it was > 100 µM (inactive). In addition, the GI50 is 52.7 µM (inactive) with SF-268; > 100 µM (inactive) in the experiment with SF-295; > 100 µM (inactive) with SK-MEL-28; > 100 µM (inactive) with SN12C; > 100 µM (inactive) with SW-620; > 100 µM (inactive) in the experiment with UACC-62.

These data come from ChEMBL document CHEMBL1201862, “PubChem BioAssay data set” (2004).
